# Laboratory results taken from patent publication US20240041870A1, “METHODS OF TREATING SYSTEMIC LUPUS ERYTHEMATOSUS” (AbbVie Inc., priority 2022, published 2024).
# Columns and labels:
# [1] = test system: subjects with moderately to severely active SLE; experiment: Exposure-response analysis (logistic regression) of upadacitinib steady-state Cavg vs efficacy endpoints; set-up: species or system human
# Method: Quartile plots for the relationships between upadacitinib steady-state (SS) Cavg and efficacy responses at Week 24 are shown in FIG. 5A to 5C. Specifically, FIG. 5A is an exposure-response quartile plot for upadacitinib efficacy at week 24 for the efficacy endpoint of SLE Responder Index (SRI-4) and Steroid Dose ≤10 mg prednisone equivalent QD, FIG. 5B is an exposure-response quartile plot for upadacitinib efficacy at week 24 for the efficacy endpoint of BILAG-Based Combined Lupus Assessment (BICLA), and FIG. 5C is an exposure-response quartile plot for upadacitinib efficacy at week 24 for the efficacy endpoint of SLE Responder Index (SRI-4).
# The highest upadacitinib steady-state (SS) Cavg quartile (which would be equivalent to 45 mg QD exposures) was consistently associated with the highest observed response across the three endpoints and was the primary driver for upadacitinib exposure-response trends. The exposure-response model-predicted median (90% prediction interval) percentage of subjects achieving SRI-4 and steroid dose ≤10 mg prednisone equivalent QD, BICLA, and SRI-4 at Week 24 is 50% (42% to 58%), 57% (50% to 65%), and 55% (47% to 62%), respectively, for upadacitinib 30 mg UPA QD compared to 38% (31% to 46%), 39% (32% to 46%), and 40% (32% to 47%), respectively, for placebo. A upadacitinib 45 mg QD dose is predicted to provide 6% to 8% greater responses compared to 30 mg QD.
# Quartile plots for the relationships between upadacitinib Cavg and efficacy responses at Week 48 are shown in FIGS. 10A-10C (SRI-4 and steroid dose ≤10 mg prednisone equivalent, SRI-4, and BICLA, respectively). Based on logistic regression analysis, there is an exposure-response relationship (p <0.05) for upadacitinib with each of the Week 48 efficacy endpoints (SRI-4 and steroid dose (10 mg prednisone equivalent QD, BICLA, and SRI-4). […]
# [2] = test system: anti-dsDNA autoantibodies, complement C3 and C4, IgG, IgM, circulating B cells; experiment: Biomarker analysis in Study M19-130; assay type: in vivo, human
# Excerpt: Biospecimens (whole blood, peripheral blood mononuclear cells [PBMCs], plasma, and serum) were collected at specified time points throughout the study to evaluate known and/or novel disease-related or drug-related biomarkers. Types of biomarkers may have included nucleic acids, proteins, lipids, RNA, DNA, and/or metabolites. The objective of this research was to analyze samples for biomarkers that would help to understand SLE, related conditions, and response to treatment with upadacitinib or similar compounds.
# Increased circulating memory, naïve, and total B cells were also observed.
# The Week 48 predefined biomarker analyses confirmed the trends observed at Week 24.
compound,measurement,setting,value
"CC[C@@H]1CN(C(=O)NCC(F)(F)F)C[C@@H]1c1cnc2cnc3[nH]ccc3n12 [Upadacitinib, (3S,4R)-3-ethyl-4-(3H-imidazo[1,2-a]pyrrolo[2,3-e]pyrazin-8-yl)-N-(2,2,2-trifluoroethyl)pyrrolidine-1-carboxamide]",plateau for efficacy at the plasma exposures evaluated,"[1]; exposures associated with 30 mg QD, Week 24",not reached
same,"relationship of upadacitinib plasma exposures with SRI-4 and steroid dose ≤10 mg prednisone equivalent, SRI-4, and BICLA at Week 24","[1]; logistic regression, p<0.05, Week 24",statistically significant relationship
same,"exposure-response relationship with SRI-4 and steroid dose ≤10 mg prednisone equivalent, SRI-4, and BICLA at Week 48","[1]; logistic regression, p<0.05, Week 48",clear exposure-response relationship
same,anti-dsDNA autoantibodies,"[2]; 30 mg QD, Week 48 analysis",meaningful decreases
same,complement C3 level,"[2]; 30 mg QD, Week 48 analysis",early reduction (a known effect of JAK inhibitors) followed by a progressive normalization
same,complement C4 level,"[2]; 30 mg QD, Week 48 analysis",early reduction (a known effect of JAK inhibitors) followed by a progressive normalization
same,circulating memory B cells,"[2]; 30 mg, Week 24 analysis",Increased
same,circulating naïve B cells,"[2]; 30 mg, Week 24 analysis",Increased
same,circulating total B cells,"[2]; 30 mg, Week 24 analysis",Increased
same,level of C3 complement compared to Baseline,"[2]; 30 mg, Week 24 analysis",significant decrease
same,level of C4 complement compared to Baseline,"[2]; 30 mg, Week 24 analysis",significant decrease
same,level of IgG,"[2]; 30 mg, Week 24 analysis",significant decreases
same,level of IgM compared to Baseline,"[2]; 30 mg, Week 24 analysis",significant decrease
same,level of anti-dsDNA autoantibodies,"[2]; 30 mg, Week 24 analysis",significant decreases
